Reference: patent EP1724268A1, “COMPOUND HAVING TGF-BETA INHIBITORY ACTIVITY AND PHARMACEUTICAL COMPOSITION CONTAINING SAME” (KIRIN BEER KABUSHIKI KAISHA, priority 2004, dated 2005)
Where two headings read alike, the source gives them in different places.

Tested on: TGFβ signal
Assay: TGFβ signal inhibitory activity, (SBE)4-Luc reporter in A549 cells (Test Examples 1A and 1B)
Format: cell-based, human
Settings: Homo sapiens, A549, read-out: TGFβ inhibition rate, %
Outline: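 Compounds at 3 µM and 10 µM (some 1 µM) were added with 2 ng/ml TGFβ-1 to A549 cells stably expressing an SBE-driven luciferase, then cultured 4 hr. Chemiluminescent luciferase signal gave % inhibition versus TGFβ-alone and no-TGFβ controls.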

[1] = 3 µM, compounds of Reference Examples (Test Example 1B)
[2] = 10 µM, compounds of Reference Examples (Test Example 1B)
[3] = test compound 3 µM, Reference Examples, Table 1B
[4] = test compound 10 µM, Reference Examples, Table 1B
[5] = test compound 3 µM, TGFβ-1 2 ng/ml, 4 hr, Table 1A
[6] = test compound 10 µM, TGFβ-1 2 ng/ml, 4 hr, Table 1A

COc1cc2nccc(Oc3cc4ccccc4nc3C(C)=O)c2cc1OC [Compound r278, 1-[3-(6,7-Dimethoxy-quinolin-4-yloxy)-quinolin-2-yl]-ethanone] was tested, and the inhibition at 3 µM [1] was 90% and the inhibition at 10 µM [2] was 99%.

In the case of COc1cc2nccc(Oc3ccc(C)nc3-c3ccccc3C(C)=O)c2cc1OC [Compound r225], the inhibition at 3 µM [1] is reported as 39% and the inhibition at 10 µM [2] is reported as 78%.

In the case of COc1cc2nccc(Oc3ccc(Cl)cc3C(=O)Nc3ccccc3)c2cc1OC [Compound r105], the inhibition at 3 µM [3] is reported as 17% and the inhibition at 10 µM [4] is reported as 88%.

Compound CCOC(=O)/C(C)=C/c1cc(OC)ccc1Oc1ccnc2cc(OC)c(OC)cc12 [r8] has an inhibition at 3 µM [3] of 10% and an inhibition at 10 µM [4] of 59%.

Compound COc1cc2nccc(Oc3cc(C)c(C)nc3-c3cnccc3C)c2cc1OC [r435] has an inhibition at 3 µM [1] of 29% and an inhibition at 10 µM [2] of 79%.

Compound Cc1ccc2nccc(Oc3cc(C)c(C)nc3-c3ccccn3)c2c1 [Compound 157, 5,6-Dimethyl-3-(6-methyl-quinolin-4-yloxy)-[2,2']bipyridine] has an inhibition at 3 µM [5] of 99% and an inhibition at 10 µM [6] of 100%.

Work on c1ccc(-c2nc3ncccc3cc2Oc2ncnc3sccc23)cc1 [Compound 76, 2-Phenyl-3-(thieno[2,3-d]pyrimidin-4-yloxy)-[1,8]naphthyridine] yielded an inhibition at 3 µM [5] of 44% and an inhibition at 10 µM [6] of 83%.

In the case of CCCOC(=O)c1cc2ccccc2cc1Oc1ccnc2cc(OCCCl)c(OC)cc12 [Compound r322], the inhibition at 3 µM [1] is reported as 50% and the inhibition at 10 µM [2] is reported as 88%.

COc1cc2c(Oc3cc4ccccc4nc3C(C)=O)ccnc2cc1OCCN1CCCCC1 [Compound r467] was tested, and the inhibition at 3 µM [1] was 100%.

Compound CCOC(=O)COc1cc2nccc(Oc3cc4ccccc4nc3C)c2cc1OC [Compound r372] has an inhibition at 3 µM [1] of 14% and an inhibition at 10 µM [2] of 93%.

For COc1cc2nccc(Oc3cc4ccccc4nc3Br)c2cc1OC [Compound r281, 4-(2-Bromo-quinolin-3-yloxy)-6,7-dimethoxy-quinoline], the inhibition at 3 µM [1] was 88% and the inhibition at 10 µM [2] was 100%.

CCOC(=O)C1CCCN(CCOc2cc3nccc(Oc4cc5ccccc5nc4C)c3cc2OC)C1 (stereo not shown) [Compound r361] was tested, and the inhibition at 3 µM [1] was 96% and the inhibition at 10 µM [2] was 100%.

Compound COc1cc2ncnc(Oc3cc(C)c(C)nc3-c3ncccn3)c2cc1OC [Compound 51, 4-(5,6-Dimethyl-2-pyrimidin-2-yl-pyridin-3-yloxy)-6,7-dimethoxy-quinazoline] has an inhibition at 3 µM [5] of 93% and an inhibition at 10 µM [6] of 100%.

In the case of Cc1ccc(-c2ccc3nccc(Oc4cc(C)c(C)nc4-c4ccccn4)c3c2)s1 [Compound 165, 5,6-Dimethyl-3-[6-(5-methyl-thiophen-2-yl)-quinolin-4-yloxy]-[2,2']bipyridine], the inhibition at 3 µM [5] is reported as 90% and the inhibition at 10 µM [6] is reported as 100%.

Work on COc1cc2nccc(Oc3ccc(C)cc3C(=O)c3ccno3)c2cc1OC [Compound r61] yielded an inhibition at 3 µM [3] of 61% and an inhibition at 10 µM [4] of 98%.

Compound COc1cc2nccc(Oc3cc4cccnc4nc3-c3ccccc3)c2cc1OC [Compound r422] has an inhibition at 3 µM [1] of 100% and an inhibition at 10 µM [2] of 100%.

COc1cc2nccc(Oc3ccc(C)nc3-c3cccc(Cl)c3)c2cc1OC [Compound r241] showed an inhibition at 3 µM [1] of 96% and an inhibition at 10 µM [2] of 100%.

For COc1cc2c(Oc3cc(C)c(C)nc3-c3ccccn3)ccnc2cc1OCCCCO [Compound r445], the inhibition at 3 µM [1] was 99%.

Work on CCc1ccc(Oc2ccnc3ccc(OCc4ccccc4)cc23)c(-c2ncccn2)n1 [Compound 190, 6-Benzyloxy-4-(6-ethyl-2-pyrimidin-2-yl-pyridin-3-yloxy)-quinoline] yielded an inhibition at 3 µM [5] of 100% and an inhibition at 10 µM [6] of 100%.

For COc1cc2nccc(Oc3cc(C(C)(C)C)c(OC)cc3C(C)=O)c2cc1OC [Compound r185], the inhibition at 3 µM [1] was 11% and the inhibition at 10 µM [2] was 59%.

With Cc1cc(Oc2ccnc3cc(-c4csc5ccccc45)ccc23)c(-c2ccccn2)nc1C [Compound 172, 3-(7-Benzo[b]thiophen-3-yl-quinolin-4-yloxy)-5,6-dimethyl-[2,2']bipyridine] the inhibition at 3 µM [5] was 49% and the inhibition at 10 µM [6] was 90%.

Compound COc1ccc2nccc(Oc3cc(C)c(C)nc3-c3ccccn3)c2n1 [Compound 121, 8-(5,6-Dimethyl-[2,2']bipyridinyl-3-yloxy)-2-methoxy-[1,5]naphthyridine] has an inhibition at 3 µM [5] of 98% and an inhibition at 10 µM [6] of 100%.

COc1cc2nccc(Oc3ccc(C)nc3-c3cccc(C(F)(F)F)c3)c2cc1OC [Compound r230] was tested, and the inhibition at 3 µM [1] was 60% and the inhibition at 10 µM [2] was 97%.

COc1ccc(Oc2ccnc3cc(OC)c(OC)cc23)c(C(=O)c2nccs2)c1 [r192] gave an inhibition at 3 µM [1] of 79% and an inhibition at 10 µM [2] of 99%.

With COc1cc2c(Oc3cc(C)c(C)nc3-c3cccnc3)ccnc2cc1OCC(O)CO (stereo not shown) [Compound r349] the inhibition at 3 µM [1] was 96%.

COC(=O)CCCCCCC(=O)c1cc(C)ccc1Oc1ccnc2cc(OC)c(OC)cc12 [r187] was tested, and the inhibition at 3 µM [1] was 35% and the inhibition at 10 µM [2] was 91%.

With COc1cc2nccc(Oc3cc4cccnc4nc3-c3ccc(Br)cc3)c2cc1OC [Compound 85, 2-(4-Bromo-phenyl)-3'-(6,7-dimethoxy-quinolin-4-yloxy)-[1,8]naphthyridine] the inhibition at 3 µM [5] was 48% and the inhibition at 10 µM [6] was 97%.

For COc1cc2nccc(Oc3ccccc3Cc3ccccc3)c2cc1OC [Compound r1, 4-(2-Benzylphenoxy)-6,7-dimethoxyquinoline], the inhibition at 3 µM [3] was 5% and the inhibition at 10 µM [4] was 53%.

COc1cc2c(Oc3ccc(C)cc3C(=O)c3ccccc3)ccnc2cc1OCC(O)CN1CCC(N2CCCC2)CC1 (stereo not shown) [r155] was tested, and the inhibition at 3 µM [3] was 100% and the inhibition at 10 µM [4] was 100%.

COc1cc2nccc(Oc3cc4cccnc4nc3-c3ccccc3)c2cc1OCc1ccccc1 [Compound 123, 3-(6-Benzyloxy-7-methoxy-quinolin-4-yloxy)-2-phenyl-[1,8]naphthyridine] showed an inhibition at 3 µM [5] of 99% and an inhibition at 10 µM [6] of 100%.

Compound COc1cc2nccc(Oc3ccc(C)nc3-c3cccc(C#N)c3)c2cc1OC [Compound r234] has an inhibition at 3 µM [1] of 87% and an inhibition at 10 µM [2] of 100%.

COc1cc2nccc(Oc3ccc(C)cc3Nc3ccccc3)c2cc1OC [Compound r14, N-[2-[(6,7-Dimethoxy-4-quinolyl)oxy]-5-methylphenyl]-N-phenylamine] showed an inhibition at 3 µM [3] of 15% and an inhibition at 10 µM [4] of 64%.

Work on CCCCOc1ccc(Oc2ccnc3cc(OC)c(OC)cc23)c(C(C)=O)c1 [r180] yielded an inhibition at 3 µM [1] of -2% and an inhibition at 10 µM [2] of 55%.

For COc1cc2nccc(Oc3cc(C)c(C(C)C)cc3C(C)=O)c2cc1OC [r183], the inhibition at 3 µM [1] was 82% and the inhibition at 10 µM [2] was 100%.

In the case of Cc1cc(Oc2ccnc3cc(Cl)ccc23)c(-c2ccccn2)nc1C [Compound 13, 3-(7-Chloro-quinolin-4-yloxy)-5,6-dimethyl-[2,2']bipyridine], the inhibition at 3 µM [5] is reported as 99% and the inhibition at 10 µM [6] is reported as 100%.

For Fc1cc2nccc(Oc3cc4cccnc4nc3-c3ccccc3)c2cc1F [Compound 101], the inhibition at 3 µM [5] was 54% and the inhibition at 10 µM [6] was 98%.

COc1cc2nccc(Oc3cc4ccccc4nc3I)c2cc1OC [r282] gave an inhibition at 3 µM [1] of 96% and an inhibition at 10 µM [2] of 100%.

COc1cc2nccc(Oc3ccc(C)nc3-c3ccc(Cl)cc3)c2cc1OC [Compound r252] was tested, and the inhibition at 3 µM [1] was 16% and the inhibition at 10 µM [2] was 78%.

CCc1ccc(Oc2ccnc3ccc(OCCOC(=O)[C@@H](N)C(C)C)cc23)c(-c2ncccn2)n1 [Compound 208, 2-[4-(6-Ethyl-2-pyrimidin-2-yl-pyridin-3-yloxy)-quinolin-6-yloxy]-ethyl (S)-2-amino-3-methyl-butanoate] gave an inhibition at 3 µM [5] of 75%.

Compound CCC(=O)c1ccc(OC)cc1Oc1ccnc2cc(OC)c(OC)cc12 [r44] has an inhibition at 3 µM [3] of 97% and an inhibition at 10 µM [4] of 100%.

COc1cc2nccc(Oc3ccc(C)cc3C)c2cc1OC [r5] was tested, and the inhibition at 3 µM [3] was 13% and the inhibition at 10 µM [4] was 56%.

Work on COc1cc2c(Oc3cc4ccccc4nc3C)ccnc2cc1OC(CO)CO [Compound r374] yielded an inhibition at 3 µM [1] of 26% and an inhibition at 10 µM [2] of 79%.

COc1cc2nccc(Oc3ccc(C)nc3-c3cc(C)n(C)n3)c2cc1OC [Compound r256, 4-[2-(1,5-Dimethyl-1H-pyrazol-3-yl)-6-methyl-pyridin-3-yloxy]-6,7-dimethoxy-quinoline] gave an inhibition at 3 µM [1] of 98% and an inhibition at 10 µM [2] of 100%.

For COc1cc2nccc(Oc3ccc(C)cc3[N+](=O)[O-])c2cc1OC [r13], the inhibition at 3 µM [3] was 28% and the inhibition at 10 µM [4] was 78%.

Compound COc1cc2c(Oc3ccc(C)cc3C(=O)c3ccccc3)ccnc2cc1OCCN1CCN(C)CC1 [Compound r129] has an inhibition at 3 µM [3] of 100% and an inhibition at 10 µM [4] of 100%.

Compound COc1ccc(Oc2ccnc3cc(OCCCCl)c(OC)cc23)c(C(C)=O)c1 [Compound r121] has an inhibition at 3 µM [3] of 100% and an inhibition at 10 µM [4] of 100%.
